Assay results reported in patent US20220362386A1, “LIQUID COMPOSITIONS COMPRISING A LEVODOPA AMINO ACID CONJUGATE AND USES THEREOF” (NeuroDerm, Ltd., priority 2019, published 2022).
Structures can show the parent of a compound that is named as a salt. Where two headings read alike, the source gives them in different places. Non-standard residues stand in square brackets, D forms with d. Residues, ends and D or L forms follow the SMILES beside them. Dopa = N[C@@H](Cc1ccc(O)c(O)c1)C(=O)O

Experiments:
physchem = type: physicochemical; conditions: for solubility thermodynamic: read-out: LD-Lys TFA salt concentration
Procedure: The volume of the solution in the bottle was adjusted to 5 ml, either by adding solvent, or be removing any residual solution, after which the bottle was tightly closed and left at 25° C. for stability observation. It is noted that throughout Example 4, the concentrations in the tables below were calculated taking into account the amount of solvent added or the solution removed, in which event, the calculations were performed regarding the 5 ml+(amount removed) as the volume of the solution. It is further noted that throughout this document, unless mentioned otherwise, the stability was measured using the manual visual inspection Bosch apparatus MIH DX, at a magnification of ×1.75.
(§1) The LD-Tyr free base, prepared according to Example 2, was added to a solvent, as detailed in Table 7 below, and neutralized by addition of NaOH. When maximum solubility was observed, the solution was filtered and then transferred to a bottle that was previously weighed and flushed with nitrogen. The volume of the solution in the bottle was adjusted to 5 ml, after which the bottle was tightly closed and left at 25° C. for stability observation.
(§2) When maximum solubility was observed, the solution was filtered and then transferred to a bottle that was previously weighed and flushed with nitrogen. The volume of the solution in the bottle was adjusted to 5 ml, after which the bottle was tightly closed and left at 25° C. for stability observation.
as §2, with “stored” for “left”
as §2, with “stored” for “left”
as §1, with “LD-Lys TFA salt,” for “The LD-Tyr free base,”, “1, and which comprises two equivalents of TFA,” for “2,”, “11” for “7”, “stored” for “left”
as §2, with “As detailed above regarding other solutions, with the LD-Tyr free base when” for “When”
as §1, with “LD-Lys HCl salt,” for “The LD-Tyr free base,”, “3,” for “2,”, “13” for “7”, “by the” for “by”

[1] = Human liver S9 stability test; type: in vitro ADME; conditions: substrate 10 μM, S9 protein 0.2 mg/mL; for Ke: slope of the percentage decrease of remaining compound, 0-60 minutes
Procedure: The stability of several LDAA compounds, in their TFA salt form, in human liver S9 was tested using commercially available liver S9. The substrate concentration was 10 μM, the S9 protein concentration was 0.2 mg/mL, and the incubation time 0, 5, 15, 30 and 60 minutes.
The results are described in Table 18, wherein the results describe the Ke, i.e., the slope of the percentage decrease of the remaining amount of the compound, measured at each of the above time points, such that the higher the Ke the faster the metabolism.

[2] = Human blood stability test; type: in vitro ADME; design: key: slope of % decrease of remaining compound over time; higher = faster metabolism; conditions: slope of the percentage decrease of remaining compound; substrate 10 μM; 0-60 minutes
Procedure: The stability of several LDAA compounds in human blood was tested. The substrate concentration was 10 μM and the incubation time 0, 5, 15, 30 and 60 minutes.
The results are described in Table 19, wherein the results describe the Ke, i.e., the slope of the percentage decrease of the remaining amount of the compound, measured at each of the above time points, such that the higher the Ke the faster the metabolism.

[3] = solvent 0.75% CD solution, pH 6.5, precipitated
[4] = solvent 0.75% CD solution, pH 7.4 (line r20)
[5] = solvent 0.75% CD solution, pH 7.4, precipitated (line r14)
[6] = solvent […] CD solution, pH 8.36
[7] = solvent DMSO:(0.1% NaBis in WFI) (70:30), pH 5.40
[8] = solvent NMP:(0.1% NaBis in WFI) (70:30), pH 4.62
[9] = solvent […] CD solution in WFI, pH 8.35 (titer/NaOH)
[10] = solvent 0.1% NaBis in WFI, pH 1.8
[11] = solvent 0.1% NaBis in WFI, pH 6.92
[12] = solvent 0.1% NaBis in WFI, pH 6.99
[13] = solvent 0.1% NaBis in WFI, pH 7.06
[14] = solvent […] CD solution, pH 8.48

NCCCC[C@H](NC(=O)[C@@H](N)Cc1ccc(O)c(O)c1)C(=O)O [LD-Lys TFA salt, Levodopa Lysine TFA Salt] (H-[Dopa]-Lys-OH)
Appearance (physchem; 0.1% NaBis in WFI, pH 7.0, 520 mg/ml salt): clear | Appearance (physchem; 0.75% CD solution, pH 6.5, 250 mg/ml salt): precipitated | Appearance (physchem; 0.75% CD solution, pH 7.4, 205 mg/ml salt): clear | Appearance (physchem; 0.75% CD solution, pH 7.4, 250 mg/ml salt): precipitated | solubility thermodynamic (physchem; 25 °C, aqueous buffer, thermodynamic from solid, solvent 0.1% NaBis in WFI, pH 7.0): 520 mg/mL | solubility thermodynamic (physchem; 25 °C, water, thermodynamic from solid, solvent WFI, pH 1.86): 770 mg/mL | Appearance (physchem; WFI, pH 1.86, 770 mg/ml salt): clear | Appearance (physchem; WFI, pH 7.1, 600 mg/ml salt): clear | Appearance (physchem; […] CD solution, pH 8.36, 180 mg/ml salt): clear | LD-Lys free base Concentration (physchem; solvent 0.1% NaBis in WFI, pH 7.0): 310 mg/mL | LD-Lys TFA salt concentration (physchem; [3]): 250 mg/mL | LD-Lys free base Concentration (physchem; [3]): 150 mg/mL | LD-Lys TFA salt concentration (physchem; [4]): 205 mg/mL | LD-Lys free base Concentration (physchem; [4]): 120 mg/mL | LD-Lys TFA salt concentration (physchem; [5]): 250 mg/mL | LD-Lys free base Concentration (physchem; [5]): 150 mg/mL | LD-Lys free base Concentration (physchem; solvent WFI, pH 1.86): 450 mg/mL | LD-Lys TFA salt concentration (physchem; solvent WFI, pH 7.1): 600 mg/mL | LD-Lys free base Concentration (physchem; solvent WFI, pH 7.1): 350 mg/mL | LD-Lys TFA salt concentration (physchem; [6]): 180 mg/mL | LD-Lys free base Concentration (physchem; [6]): 110 mg/mL | Ke [1]: 0.0788 | metabolism in human liver S9 (in words) [1]: rapidly metabolized | Ke [2]: 0.0655

N[C@@H](Cc1ccc(O)c(O)c1)C(=O)N[C@@H](CC(=O)O)C(=O)O [LD-Asp TFA salt, Levodopa Aspartic Acid] (H-[Dopa]-Asp-OH)
Ke [1]: 0.0008 | Ke [2]: 0.0014

NC(=O)C[C@H](NC(=O)[C@@H](N)Cc1ccc(O)c(O)c1)C(=O)O [LD-Asn TFA salt, Levodopa Asparagine TFA Salt] (H-[Dopa]-Asn-OH)
Ke [1]: 0.0015 | Ke [2]: 0.0038

N[C@@H](Cc1ccc(O)c(O)c1)C(=O)N[C@@H](Cc1ccc(O)cc1)C(=O)O [LD-Tyr TFA salt, Levodopa Tyrosine TFA Salt] (H-[Dopa]-Tyr-OH)
Appearance (physchem; 0.1% sodium bisulfite (Na Bis) in WFI, pH 7.22 (titer/NaOH), 205 mg/ml salt, TFA Salt): precipitated | solubility (physchem; 0.1% sodium bisulfite in WFI, 25 °C, aqueous buffer, thermodynamic from solid, solvent 0.1% sodium bisulfite (Na Bis) in WFI, pH 7.22 (titer/NaOH), precipitated during titration): ≤ 205 mg/mL | Appearance (physchem; DMSO:(0.1% NaBis in WFI) (70:30), pH 5.40, 200 mg/ml salt): clear | Appearance (physchem; DMSO, 184 mg/ml salt): clear | Appearance (physchem; NMP:(0.1% NaBis in WFI) (70:30), pH 4.62, 200 mg/ml salt): clear | Appearance (physchem; NMP, 200 mg/ml salt): Clear | Appearance (physchem; WFI, pH ~2, 210 mg/ml salt): clear | Appearance (physchem; […] CD solution in WFI, pH 8.35, 178 mg/ml salt): clear | LD-Tyr free base Concentration (physchem; solvent 0.1% sodium bisulfite (Na Bis) in WFI, pH 7.22 (titer/NaOH), precipitated during titration): 160 mg/mL | LD-Tyr TFA salt concentration (physchem; solvent DMSO): 184 mg/mL | LD-Tyr free base Concentration (physchem; solvent DMSO): 140 mg/mL | LD-Tyr TFA salt concentration (physchem; [7]): 200 mg/mL | LD-Tyr free base Concentration (physchem; [7]): 150 mg/mL | LD-Tyr TFA salt concentration (physchem; solvent NMP): 200 mg/mL | LD-Tyr free base Concentration (physchem; solvent NMP): 150 mg/mL | LD-Tyr TFA salt concentration (physchem; [8]): 200 mg/mL | LD-Tyr free base Concentration (physchem; [8]): 150 mg/mL | LD-Tyr TFA salt concentration (physchem; solvent Water for injection (WFI), pH ~2): 210 mg/mL | LD-Tyr free base Concentration (physchem; solvent Water for irrigation (WFI), pH ~2): 160 mg/mL | LD-Tyr TFA salt concentration (physchem; [9]): 178 mg/mL | LD-Tyr free base Concentration (physchem; [9]): 135 mg/mL | Ke [1]: 0.0217 | metabolism in human liver S9 (in words) [1]: rapidly metabolized | Ke [2]: 0.0426

N[C@@H](CSC[C@@H](NC(=O)[C@@H](N)Cc1ccc(O)c(O)c1)C(=O)O)C(=O)O (single isomer, unassigned; peak 1) [LD-LA1 TFA salt, Levodopa Lanthionine Peak 1 TFA Salt]
Ke [2]: −0.011

N=C(N)NCCC[C@H](NC(=O)[C@@H](N)Cc1ccc(O)c(O)c1)C(=O)O [LD-Arg TFA salt, Levodopa Arginine TFA Salt]
Appearance (physchem; 0.1% NaBis in WFI, pH 1.8, 610 mg/ml salt): clear | Appearance (physchem; 0.1% NaBis in WFI, pH 6.92, 200 mg/ml salt): clear | Appearance (physchem; 0.1% NaBis in WFI, pH 6.99, 420 mg/ml salt): clear | Appearance (physchem; 0.1% NaBis in WFI, pH 7.06, 200 mg/ml salt): clear | Appearance (physchem; WFI, pH 1.7, 600 mg/ml salt): clear | Appearance (physchem; WFI, pH 7.2, 200 mg/ml salt): clear | Appearance (physchem; WFI, pH 7.2, 420 mg/ml salt): clear | Appearance (physchem; […] CD solution, pH 8.48, 180 mg/ml salt): clear | LD-Arg TFA salt concentration (physchem; [10]): 610 mg/mL | LD-Arg free base Concentration (physchem; [10]): 370 mg/mL | LD-Arg TFA salt concentration (physchem; [11]): 200 mg/mL | LD-Arg free base Concentration (physchem; [11]): 120 mg/mL | LD-Arg TFA salt concentration (physchem; [12]): 420 mg/mL | LD-Arg free base Concentration (physchem; [12]): 260 mg/mL | LD-Arg TFA salt concentration (physchem; [13]): 200 mg/mL | LD-Arg free base Concentration (physchem; [13]): 120 mg/mL | LD-Arg TFA salt concentration (physchem; solvent WFI, pH 1.7): 600 mg/mL | LD-Arg free base Concentration (physchem; solvent WFI, pH 1.7): 370 mg/mL | LD-Arg TFA salt concentration (physchem; solvent WFI, pH 7.2 (line r9)): 420 mg/mL | LD-Arg free base Concentration (physchem; solvent WFI, pH 7.2 (line r9)): 260 mg/mL | LD-Arg TFA salt concentration (physchem; solvent WFI, pH 7.2 (line r17)): 200 mg/mL | LD-Arg free base Concentration (physchem; solvent WFI, pH 7.2 (line r17)): 120 mg/mL | LD-Arg TFA salt concentration (physchem; [14]): 180 mg/mL | LD-Arg free base Concentration (physchem; [14]): 110 mg/mL | Ke [1]: 0.1268 | metabolism in human liver S9 (in words) [1]: rapidly metabolized | Ke [2]: 0.0919

N[C@@H](CSC[C@H](NC(=O)[C@@H](N)Cc1ccc(O)c(O)c1)C(=O)O)C(=O)O (single isomer, unassigned; peak 2) [LD-LA2 TFA salt, Levodopa Lanthionine Peak 2 TFA Salt]
Ke [2]: 0.0128
